The series in a line: Pulsating bubble surfactometry: minimum surface tension and time to reach it. Type of series: physicochemical. The source says: One of the most important properties of the polymer/phospholipid complexes in accordance with the invention, especially for use as artificial lung surfactants, is the manner in which the surface tension varies with repetitive changes in surface area, and one test method that has been used is a pulsating bubble technique using a pulsating bubble surfactometer which consists of a sample chamber, pulsator unit and pressure-recording device. In a particular example, the sample chamber is made up of a capillary tube (ID 0.5 mm) inserted into a wider diameter tube (ID 1.5 mm). The latter is filled with the sample liquid and connected to a pulsator unit and pressure transducer. Air is drawn in through the capillary tube which acts as an airways forming a bubble of air within the sample chamber. This bubble serves as a model alveolus. […] Variations of pressure within the bubble, during each pulsation cycle, are measured by a transducer and combined with values of bubble volume to calculate changes in surface tension.
This pulsating bubble technique simulates to some extent the contraction and expansion of the alveoli sacks in the lungs and allows the surface tension to be assessed at minimum and maximum bubble volumes, and allows the effect of repeated expansion and compression cycles upon the adsorption of surface active components to be observed and quantified. This technique has been used as a model in vitro system for testing the efficacy of synthetic lung surfactants. Some results of tests carried out not only on the complexes prepared in accordance with the invention, but also on the membrane-forming phospholipids used and the polymers themselves, as well as on commercially available lung surfactants, are summarised in the Tables at the end of the present description.
Showing minimum Surface Tension (ST) value achieved and time to reach this level.
Pulse Rate (PR)=34, Temp=Room Temp & pH=7.0 unless otherwise stated.

[1] abbreviates: 1.0%, pH 3.22, PR = 12, room temp.
The mark [2] stands for this setting: 1.0%, pH 7.0 (default), PR 34, room temp, 2 hrs hydration.
[3] abbreviates: 1.0%, pH 7.0 (default), PR 34, room temp, 12 hr hydration.
[4] abbreviates: 1.0%, pH 9.33, PR = 12, room temp.
Setting [5] is: 1.0%, pH 12.00, PR 34, room temp.
[6] abbreviates: […], pH 7.0 (default), PR 34, room temp, Sonicated.
Setting [7] is: LALE 1.0%, pH 7.0 (default), PR 34, room temp.
Setting [8] is: DLPC (fresh) sonicated 0.5, pH 3.92, 24.0 °C, pulse rate 30/min.
Where [9] appears, read: DLPC (fresh) 0.5, pH 7.12, 25.1 °C, pulse rate 30/min.
The mark [10] stands for this setting: DPPC 0.5, pH 4.1, 21.9 °C, pulse rate 30/min.
The mark [11] stands for this setting: DPPC (fresh) 0.5, pH 6.3, 24.9 °C, pulse rate 30/min.
The mark [12] stands for this setting: DPPC sonicated 0.5, pH 7.3, 23.1 °C, pulse rate 30/min.
Setting [13] is: DPPC sonicated 0.5, pH 7.3, 37.5 °C, pulse rate 30/min.
Setting [14] is: DPPC sonicated 0.5, pH 7.3, 24.0 °C, pulse rate 30/min.
Where [15] appears, read: DPPC sonicated 0.5, pH 7.3, 37.5 °C, after 40 mins at room temp, pulse rate 30/min.

This is an account of results in patent US6436905B1, “Lipid-containing compositions and uses thereof” (Aston University, priority 1997, dated 2002).

For `CCCCCCCCCCCC(=O)OC[C@H](COP(=O)([O-])OCC[N+](C)(C)C)OC(=O)CCCCCCCCCCC` [DLPC, Dilaurylphosphatidylcholine], the “Minimal ST” value under setting [1] was 6.39 dynes/cm; the “Minimal ST” value under setting [2] was 6.82 dynes/cm; the “Minimal ST” value under setting [3] was found to be 24.89 dynes/cm; the “Minimal ST” value under setting [4] came to 15.66 dynes/cm; the “Minimal ST” value under setting [5] is reported as 15.10 dynes/cm; the “Minimal ST” value under setting [6] was 9.60 dynes/cm. The “Time to Develop” value by setting is: under setting [1], 30 min; under setting [2], 20 min; under setting [3], 30 min; under setting [4], 30 min; under setting [5], 30 min; under setting [6], 30 min.

Turning to `CCCCCCCCCCCCOC(=O)CCCCCCCCCCC` [LALE, Lauric acid lauryl ester], under setting [7], the “Minimal ST” value stood at 22.61 dynes/cm and the “Time to Develop” value amounted to 30 min.

In the case of `CCCCCCCCCCCC(=O)OC[C@H](COP(=O)([O-])OCC[N+](C)(C)C)OC(=O)CCCCCCCCCCC` [dlf5], the Time to Develop was 20 min (DLPC (fresh) 0.5, pH 5.47, 24.0 °C, pulse rate 30/min, first line) and 40 min (DLPC (fresh) 0.5, pH 5.47, 24.0 °C, pulse rate 30/min, second line). The “Minimal ST <10 dynes/cm” value runs as follows: (DLPC (fresh) 0.5, pH 5.47, 24.0 °C, pulse rate 30/min, first line (time 20)) 12.57 dynes/cm; (DLPC (fresh) 0.5, pH 5.47, 24.0 °C, pulse rate 30/min, second line (time 40)) 0.04 dynes/cm.

For `CCCCCCCCCCCC(=O)OC[C@H](COP(=O)([O-])OCC[N+](C)(C)C)OC(=O)CCCCCCCCCCC` [dlfs4], under setting [8], the “Minimal ST <10 dynes/cm” value was 1.67 dynes/cm and the Time to Develop was found to be 10 min.

With `CCCCCCCCCCCC(=O)OC[C@H](COP(=O)([O-])OCC[N+](C)(C)C)OC(=O)CCCCCCCCCCC` [dlfs7], under setting [9], the “Minimal ST <10 dynes/cm” value stood at 18.25 dynes/cm and the Time to Develop was 20 min.

Take `CCCCCCCCCCCCCCCC(=O)OC[C@H](COP(=O)([O-])OCC[N+](C)(C)C)OC(=O)CCCCCCCCCCCCCCC` [dlpf4]: under setting [10], the “Minimal ST <10 dynes/cm” value came to 5.31 dynes/cm and the Time to Develop came to 30 min.

As to `CCCCCCCCCCCCCCCC(=O)OC[C@H](COP(=O)([O-])OCC[N+](C)(C)C)OC(=O)CCCCCCCCCCCCCCC` [dlpf6], under setting [11], the “Minimal ST <10 dynes/cm” value was determined as 16.18 dynes/cm and the Time to Develop stood at 30 min.

Take `CCCCCCCCCCCCCCCC(=O)OC[C@H](COP(=O)([O-])OCC[N+](C)(C)C)OC(=O)CCCCCCCCCCCCCCC` [dlpf7]: under setting [12], the “Minimal ST <10 dynes/cm” value worked out at 20.36 dynes/cm and the Time to Develop came to 40 min.

`CCCCCCCCCCCCCCCC(=O)OC[C@H](COP(=O)([O-])OCC[N+](C)(C)C)OC(=O)CCCCCCCCCCCCCCC` [dp7st]: under setting [13], the “Minimal ST <10 dynes/cm” value is on record as 26.58 dynes/cm and the Time to Develop worked out at 2 min.

For `CCCCCCCCCCCCCCCC(=O)OC[C@H](COP(=O)([O-])OCC[N+](C)(C)C)OC(=O)CCCCCCCCCCCCCCC` [dpf7s], the “Minimal ST <10 dynes/cm” value stood at 9.99 dynes/cm under setting [14] and 27.95 dynes/cm under setting [15]. For the same molecule, the Time to Develop reads like this: under setting [14], 20 min; under setting [15], 40 min.
